Assay results reported in the supplement of paper PMC4858399.
Structures can show the parent of a compound that is named as a salt.

Key:
Conditions in all cases: exposure time 48 h
[1] = test system: Caenorhabditis elegans N2; experiment: AC50 for larval growth inhibition (Hill fit); higher = less potent
How it was run: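 Synchronised C. elegans N2 L1 larvae, 50 per well in 96-well plates, were grown at 20°C for 48 h in K-medium with killed OP50, 1% DMSO and 0.5–200 µM chemical. Worm size was read on a COPAS Biosort as extinction, log-transformed and averaged per well, and only wells holding at least 10 worms were kept. AC50 was obtained by a constrained Hill fit using weighted genetic-algorithm regression, with out-of-range values censored.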

[2] = test system: Caenorhabditis elegans N2; experiment: mean nematode size ln(EXT) after 48 h, plate-adjusted (DMSO control set to 6) (ln(EXT), control-adjusted); higher = larger nematodes / less growth inhibition
How it was run: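 A growth model removed debris from Biosort extinction readings taken on each worm. These worms were synchronised C. elegans N2 L1 larvae, 50 per well in 4–6 wells per treatment, grown for 48 h at 20°C in K-medium with killed OP50, 1% DMSO and 0.5–200 µM chemical. Readings were natural-logged and averaged by well to give mean size. On each plate, the vehicle control mean was subtracted and 6 was added.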

[3] = test system: Caenorhabditis elegans N2; experiment: lowest effective concentration for larval growth inhibition (size below effect threshold); higher = less potent
How it was run: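 Log-transformed well means of per-worm extinction, read as size on a Biosort, came from 50 C. elegans N2 L1 larvae per 96-well grown 48 h at 20°C in K-medium with killed bacteria, 1% DMSO and 0.5 to 200 µM chemical. The lowest effective concentration is the first dose at which the plate-adjusted mean size is below the threshold and stays below it at every higher dose. The threshold is 5.665.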

Compound	AC50 for larval growth inhibition [1] [µM]	mean nematode size ln(EXT) (ln) ([2]; 0.5 µM)	mean nematode size ln(EXT) (ln) ([2]; 1 µM)	mean nematode size ln(EXT) (ln) ([2]; 5 µM)	mean nematode size ln(EXT) (ln) ([2]; 10 µM)	mean nematode size ln(EXT) (ln) ([2]; 50 µM)	mean nematode size ln(EXT) (ln) ([2]; 100 µM)	mean nematode size ln(EXT) (ln) ([2]; 200 µM)	lowest effective concentration [3] [µM]
N#CSCSC#N [Methylene bis(thiocyanate)]	17.5	5.41	5.47	5.22	5.16	3.74	3.85	3.4	≤ 0.5
O=C(O)C(F)(F)C(F)(F)C(F)(F)C(F)(F)C(F)(F)C(F)(F)C(F)(F)F [Pentadecafluorooctanoic acid ammonium salt]	> 200	5.88	5.86	5.85	5.84	5.83	5.68	5.43	200
ClC1=C(Cl)C2(Cl)C3C4C=CC(C4)C3C1(Cl)C2(Cl)Cl (configuration not stated) [Aldrin]	3.92	5.97	5.64	4.59	3.88	3.6	3.76	3.25	1
CN(C)c1ccc(Cc2ccc(N(C)C)cc2)cc1 [4,4'-methylenebis(N,N-dimethylaniline)]	66.3	5.92	5.8	5.81	5.86	5.74	5.17	5.04	100
CC/C(=C(/CC)c1ccc(O)cc1)c1ccc(O)cc1 [Diethylstilbestrol (DES)]	87	6	6	5.97	5.96	5.99	5.73	5.61	200
O=C1OC(c2ccc(O)cc2)(c2ccc(O)cc2)c2ccccc21 [Phenolphthalein]	> 200	5.87	5.86	5.87	5.87	5.78	5.84	5.55	200
CCCCCCC(C)OC(=O)COc1nc(F)c(Cl)c(N)c1Cl (configuration not stated) [Fluroxypyr-meptyl]	185	5.84	5.84	6.02	5.94	5.83	6.29	4.64	200
O=c1[nH]c2ccc([S+]([O-])CCN3CCC(Cc4ccc(F)cc4)CC3)cc2o1 (configuration not stated) [Besonprodil]	> 200	5.75	6	5.87	5.9	5.87	5.82	5.31	200
CCOC(=O)C(C)(C)Oc1ccc(Cl)cc1 [Clofibrate]	> 200	6.01	5.8	5.86	5.81	5.75	5.78	5.54	200
COC(=O)Nc1nc2ccccc2[nH]1 [methyl 1H-benzimidazol-2-ylcarbamate]	6.43	5.81	5.7	5.32	5.32	5.06	4.58	4.89	5
COC(=O)c1ccccc1N [Methyl 2-aminobenzoate]	> 200	5.88	5.87	5.91	5.88	5.8	5.7	5.64	200
CC[C@H](NC(=O)c1cc(F)ccc1NS(=O)(=O)c1cccc2cccnc12)c1ccccc1	57.4	5.88	5.83	5.85	5.52	4.56	4.28	3.77	10
Nc1cc2c3c(c1)C(c1ccccc1)=N[C@@H](NC(=O)c1cccnc1)C(=O)N3CC2	> 200	5.78	5.74	5.7	5.73	5.63	5.62	5.61	50
CC(C)(C)c1cc(O)c(C(C)(C)C)cc1O [1,4-Benzenediol, 2,5-bis(1,1-dimethylethyl)-]	113	5.85	5.93	5.73	5.79	5.7	4.85	3.48	100
Clc1ccccc1C(c1ccccc1)(c1ccccc1)n1ccnc1 [Clotrimazole]	18.8	5.8	5.74	5.4	4.95	3.89	3.9	3.23	5
CC(C)(c1ccc(O)cc1)c1ccc(O)cc1 [Bisphenol A]	> 200	5.83	5.86	5.99	5.88	5.95	5.96	5.46	200
O=C(O)C(F)(F)C(F)(F)C(F)(F)C(F)(F)C(F)(F)C(F)(F)F [Perfluoroheptanoic acid]	> 200	5.87	5.85	5.88	5.83	5.74	5.42	5.57	100
O=C1c2c(O)cccc2Cc2cccc(O)c21 [Dithranol]	189	5.83	5.82	5.81	5.77	5.67	5.74	4.35	200
O=c1n(CC2CO2)c(=O)n(CC2CO2)c(=O)n1CC1CO1 (configuration not stated) [Triglycidyl isocyanurate]	> 200	5.88	5.83	5.84	5.89	5.86	5.42	5.65	100
COCCOC[C@H](CC1(C(=O)N[C@H]2CC[C@@H](C(=O)O)CC2)CCCC1)C(=O)Oc1ccc2c(c1)CCC2 [Candoxatril]	> 200	5.96	5.83	5.92	5.81	5.91	5.85	5.66	200
CC1(C)CC(N=C=O)CC(C)(CN=C=O)C1 (mixture of isomers) [Isophorone diisocyanate, mixture of isomers]	> 200	5.94	5.89	5.97	5.71	5.76	5.37	4.55	100
O=[N+]([O-])c1c(Cl)c(Cl)c(Cl)c(Cl)c1Cl [Quintozene]	194	5.85	5.74	5.72	5.88	5.93	5.94	5.11	200

Compound	AC50 for larval growth inhibition [1] [µM]	mean nematode size ln(EXT) (ln) ([2]; 0.5 µM)	mean nematode size ln(EXT) (ln) ([2]; 1 µM)	mean nematode size ln(EXT) (ln) ([2]; 5 µM)	mean nematode size ln(EXT) (ln) ([2]; 10 µM)	mean nematode size ln(EXT) (ln) ([2]; 50 µM)	mean nematode size ln(EXT) (ln) ([2]; 100 µM)	mean nematode size ln(EXT) (ln) ([2]; 200 µM)	lowest effective concentration [3] [µM]
C=CCc1cc(S(=O)(=O)c2ccc(O)c(CC=C)c2)ccc1O [4,4'-sulfonylbis[2-(prop-2-en-1-yl)phenol]]	190	5.87	5.88	5.9	5.89	5.39	5.1	4.49	50
CC(C)(O)c1cnn2c(-c3ccc(F)c(-c4c(F)cccc4C#N)c3)cnc2n1	> 200	5.88	5.79	5.71	5.8	5.82	5.66	5.05	100
CCc1nn(C2CCCCC2)c2cc(C3(C#N)CCC(C(=O)O)CC3)ccc12 (configuration not stated)	> 200	5.91	5.88	5.86	5.93	5.81	5.67	5.45	200
CCCN(CCOc1c(Cl)cc(Cl)cc1Cl)C(=O)n1ccnc1 [Prochloraz]	153	6.11	6.19	6.19	6.29	5.98	5.98	3.41	200
OC12N=C(c3ccccc3)SC1Cc1cc(Cl)ccc12 (configuration not stated)	48.6	5.69	5.74	5.5	5.45	4.53	4.08	3.96	5
CON(C)C(=O)Nc1ccc(Cl)c(Cl)c1 [Linuron]	104	6.04	6.22	6.19	5.98	6.16	5.57	4.43	100
CC(C)(C)c1ccccc1O [2-tert-Butylphenol]	> 200	5.96	5.94	5.97	5.92	5.81	5.81	4.94	200
CC(C)(C)c1cc(C(C)(C)C)c(O)c(C(C)(C)C)c1 [2,4,6-Tris(tert-butyl)phenol]	> 200	5.84	5.9	5.94	5.7	5.58	5.4	4.67	50
C1CCC(SSC2CCCCC2)CC1 [Dicyclohexyl disulfide]	> 200	5.76	5.82	5.78	5.74	5.65	5.62	5.44	50
ClC1=C(Cl)[C@]2(Cl)[C@@H]3[C@@H](Cl)[C@H]4O[C@H]4[C@@H]3[C@@]1(Cl)C2(Cl)Cl (single isomer, unassigned; isomer b) [Heptachlor epoxide, isomer B]	7.71	5.72	5.69	5.48	5.44	5.2	5.14	5.11	5
Cc1ncc(CO)c(CO)c1O [Pyridoxine]	> 200	5.84	5.88	5.86	5.83	5.87	5.92	5.63	200
CC(C)(C)CC(C)(C)c1ccc(O)c(-n2nc3ccccc3n2)c1 [Octrizole]	> 200	5.46	5.58	5.57	5.58	5.58	5.55	5.44	≤ 0.5
CCOC(=O)c1ccc(C2CCC(NC[C@H](O)COc3ccc(O)c(NS(C)(=O)=O)c3)CC2)cc1 (some centres not stated)	> 200	5.91	5.88	5.77	5.77	5.7	5.57	5.48	100
CN=C=S [Methyl isothiocyanate]	> 200	6.14	6.37	6.06	6.02	5.96	6.02	5.06	200
CCC1(c2ccccc2)C(=O)NC(=O)NC1=O [Phenobarbital sodium salt]	> 200	5.87	5.82	5.88	5.86	5.87	5.91	5.65	200
NS(=O)(=O)C(F)(F)C(F)(F)C(F)(F)C(F)(F)C(F)(F)C(F)(F)C(F)(F)C(F)(F)F [Perfluorooctanesulfonamide]	7.84	5.89	5.86	5.26	4.64	3.6	3.86	3.65	5
CCCOC(=O)c1cc(O)c(O)c(O)c1 [Propyl gallate]	126	5.91	5.94	6.05	5.78	5.95	5.81	5.54	200
CNc1cnn(-c2cccc(C(F)(F)F)c2)c(=O)c1Cl [Norflurazon]	104	5.99	5.96	6.11	6.19	6.05	5.79	5.15	200
CCCCCCCCCCCCCCCS(=O)(=O)Oc1ccccc1 [C10-21 sulfonic acids phenyl esters]	169	6.06	6.02	5.89	6	5.93	5.96	3.65	200
O=[N+]([O-])C(Br)(CO)CO [Bronopol]	> 200	5.88	5.93	5.93	5.84	5.65	5.56	4.95	50
CC(C)C(=O)Nc1ccc([N+](=O)[O-])c(C(F)(F)F)c1 [Flutamide]	112	5.89	5.88	5.89	5.62	4.96	4.82	4.05	10
